Data reported in the NIST ThermoML archive (doi:10.1021/je800940j).
± gives the expanded uncertainty stated by the source.

Assay: xn = mol fraction of the nth substance listed
Conditions: 101 kPa, Liquid; for viscosity: Concentric cylinders viscometry

C1CCCCC1 [cyclohexane] + Cc1ccccc1
Conditions | mass density, 283.15 K [kg/m3] | mass density, 293.15 K [kg/m3] | mass density, 303.15 K [kg/m3] | mass density, 313.15 K [kg/m3] | mass density, 323.15 K [kg/m3] | viscosity, 283.15 K [mPa·s] | viscosity, 293.15 K [mPa·s] | viscosity, 303.15 K [mPa·s] | viscosity, 313.15 K [mPa·s] | viscosity, 323.15 K [mPa·s]
x1 = 0.0958 | 866.15 ± 0.65 | 856.9 ± 0.67 | 847.5 ± 0.69 | 838.15 ± 0.71 | 828.65 ± 0.72 | 0.6712 ± 0.0084 | 0.5995 ± 0.008 | 0.5395 ± 0.0076 | 0.4879 ± 0.0074 | 0.4428 ± 0.0071
x1 = 0.196 | 855.85 ± 0.67 | 846.6 ± 0.69 | 837.2 ± 0.71 | 827.8 ± 0.73 | 818.35 ± 0.75 | 0.6623 ± 0.0083 | 0.5908 ± 0.0079 | 0.5306 ± 0.0076 | 0.4776 ± 0.0073 | 0.431 ± 0.0071
x1 = 0.2986 | 846 ± 0.69 | 836.7 ± 0.71 | 827.3 ± 0.73 | 817.9 ± 0.75 | 808.45 ± 0.77 | 0.6792 ± 0.0084 | 0.6051 ± 0.008 | 0.543 ± 0.0077 | 0.487 ± 0.0074 | 0.4426 ± 0.0071
x1 = 0.3988 | 836.5 ± 0.71 | 827.2 ± 0.73 | 817.8 ± 0.75 | 808.4 ± 0.77 | 798.9 ± 0.78 | 0.6948 ± 0.0085 | 0.6171 ± 0.0081 | 0.5524 ± 0.0077 | 0.4971 ± 0.0074 | 0.4491 ± 0.0072
x1 = 0.4974 | 827.65 ± 0.73 | 818.35 ± 0.75 | 808.9 ± 0.76 | 799.45 ± 0.78 | 789.95 ± 0.8 | 0.7218 ± 0.0087 | 0.6378 ± 0.0082 | 0.5683 ± 0.0078 | 0.5095 ± 0.0075 | 0.4589 ± 0.0072
x1 = 0.5989 | 818.8 ± 0.74 | 809.4 ± 0.76 | 800 ± 0.78 | 790.5 ± 0.8 | 781 ± 0.82 | 0.7635 ± 0.0089 | 0.67 ± 0.0084 | 0.5935 ± 0.008 | 0.5294 ± 0.0076 | 0.4735 ± 0.0073
x1 = 0.6977 | 810.1 ± 0.76 | 800.7 ± 0.78 | 791.3 ± 0.8 | 781.8 ± 0.82 | 772.25 ± 0.84 | 0.8203 ± 0.0092 | 0.7137 ± 0.0086 | 0.6274 ± 0.0081 | 0.5553 ± 0.0077 | 0.4886 ± 0.0074
x1 = 0.7998 | 802.5 ± 0.78 | 793.1 ± 0.8 | 783.65 ± 0.82 | 774.15 ± 0.83 | 764.5 ± 0.85 | 0.9103 ± 0.0098 | 0.7838 ± 0.009 | 0.6824 ± 0.0085 | 0.5987 ± 0.008 | 0.5292 ± 0.0076
x1 = 0.8994 | 794.8 ± 0.79 | 785.5 ± 0.81 | 776.1 ± 0.83 | 766.5 ± 0.85 | 756.9 ± 0.87 | 0.9994 ± 0.01 | 0.8472 ± 0.0094 | 0.7271 ± 0.0087 | 0.6373 ± 0.0082 | 0.5583 ± 0.0078
x1 = 1 | 787.95 ± 0.81 | 778.7 ± 0.83 | 769.2 ± 0.84 | 759.65 ± 0.86 | 749.9 ± 0.88 | 1.18 ± 0.011 | 0.9847 ± 0.01 | 0.8295 ± 0.0093 | 0.7061 ± 0.0086 | 0.5978 ± 0.008
